Laboratory results taken from patent US8980922B2, “5-HT4 receptor agonists for the treatment of dementia” (Raqualia Pharma Inc., priority 2010, dated 2015).
Counter-ions that a name gives are not always drawn.

What was measured:
Male IGS rats [1] = assay: Spontaneous alteration test in rats (scopolamine-induced impairment); format: in vivo, rat
Description: Spontaneous Alteration Test in Rats (Method Referred: Eur. J. Pharmacol., 236 (1993) 341-345)
Male IGS rats (6 weeks-old, Charles River Laboratories Japan, Inc.) were used in this study. The scopolamine solution or saline was administered intraperitoneally 30 minutes after the administration of the test substance or vehicle. Thirty minutes after the injection, the rat was placed at the end of one arm toward to the end of the arm and was allowed to move freely through the maze for 8-min test session. The sequence of arm entries was recorded manually. Alteration was defined as entry into all three arms on consecutive choices. The percent alteration as an indicator of spontaneous alteration performance was calculated as (number of alterations/total number of arm entries minus 2)×100.
The effect of Compound A on the scopolamine-induced impairment of spontaneous alteration performance in rats was investigated. In the percent alterations, the values on saline- and scopolamine-treated groups were 75.2% and 53.9%, respectively.

Male IGS rats [2] = assay: Rat Novel Object Recognition Study; format: in vivo
Description: Rat Novel Object Recognition Study (Method Referred: PNAS, 101 (2003) 853-858)
Male IGS rats (9 weeks-old, Charles River Laboratories Japan, Inc.) were used in this study. Compound A and donepezil hydrochloride (reference substance) were orally administered at 60 min before training trial and before retention trial. Number of animals per group was 15. Open-field box (40×40×40 cm) with sawdust covering its floor was used in this study. As for the training trials, the animals were allowed to explore two identical objects (A1 and A2) for 3 min. The objects are plastic “LEGO bricks” that vary in shape, color, and size. […]
Exploration of an object was defined as pointing the nose to the object at a distance of <1 cm and/or touching it with the nose. DVD images were analyzed by an observer who was […] of the treatment condition. To assess cognitive performance, the time spent exploring the familiar (TA3) and novel (TB) object, and discrimination index (DI; (TB−TA3)/(TB+TA3)) was analyzed. […] To assess the overall levels of exploratory performance, total time spent exploring the both objects was analyzed.
For Compound A, discrimination index was analyzed using Bartlett's test followed by Dunnett's multiple comparison test. […] For donepezil, discrimination index was analyzed using F-test, followed by Student's t-test. […]

Tg2576 mice = assay: Abeta reduction in Tg2576 mice; format: in vivo; details: 1 and 10 mg/kg BID orally, three weeks; soluble plus insoluble Abeta, ELISA
Description: Female Tg2576 mice that express the human amyloid precursor protein (APP) gene with the Swedish mutation (APPSWE) were purchased from Taconic Farms (catalog #001349-TF).
Tg2576 mice (31-week old at the beginning of the experiment) were dosed orally twice a day (BID) for 3 weeks with 0.1, 1, or 10 mg/kg Compound A in the vehicle consisting of 0.5% methylcellulose and 0.1% Tween 80. Mice were euthanized three hours after the last dose. Brain tissues were collected and homogenized in 5-volumes of ice-cold TBS buffer (50 mM Tris-HCl) containing 1% CHAPS and protease inhibitors. The homogenates were centrifuged at 14,000 g for 10 minutes at 4° C., and the resulting supernatants were collected as soluble pool of Abeta. The pellets were dissolved in the starting volume of 5 M guanidine in TBS buffer and the resulting homogenates were collected as insoluble pool of Abeta. Abeta1-40 and Abeta1-42 were quantified using commercially available ELISA kits according to the manufacture's instructions. Measurements were performed in duplicate. The final values of Abeta in the brain were expressed as nanograms per gram wet brain weight. Total Abeta levels were obtained by adding the values of the soluble and insoluble Abeta levels.

[3] = test system: rat hippocampus (Hip) ACh level; assay: Increase of hippocampus ACh release in rats (microdialysis); format: in vivo; details: direct injection (perfusion via dialysis probe, 120 min) into rat Hip; 100 nM eserine in aCSF
Description: Increase of Hippocampus ACh Release in Rats
Effects of Compound A on rat hippocampus (Hip) ACh level were tested using microdialysis in Male Wistar rats. One day before the start of the experiments, rats were anesthetized and guide cannula was implanted in the dorsal Hip. One day after surgery, a dialysis probe was inserted through a guide cannula in Hip and perfused with artificial cerebrospinal fluid (aCSF) containing 148 mM NaCl, 2.7 mM KCl, 1.2 mM CaCl2, 0.85 mM MgCl2, together with 100 nM eserine. After a 1 h equilibration period, sample collection began. Outflow fractions were collected every 20 min. After six stable baseline fractions were collected, the perfusate was replaced to aCSF containing Compound A with 100 nM eserine for 120 min, and then it was switched again to aCSF with 100 nM eserine alone. Dialysis fractions were then analyzed using high performance liquid chromatography with an electrochemical detection system. Isopropyl homocholine was used as internal standard. The amount of ACh in each dialysate sample was calculated from the peak height ratio of ACh/IPHC. ACh content was expressed as a percent of baseline calculated from the average of three samples preceding drug infusion.
ACh content was expressed as a percent of baseline calculated from the average of three samples preceding drug infusion.

Abeta = details: NPL 13; cited from earlier work

CN1[C@@H]2C[C@@H](OC(=O)[C@H](CO)c3ccccc3)C[C@H]1[C@@H]1O[C@@H]12 [scopolamine, reference compound]
percent alteration (Male IGS rats [1]; scopolamine-treated group (intraperitoneal), saline-treated group 75.2%, p<0.01): 53.9%

COc1cc2c(cc1OC)C(=O)C(CC1CCN(Cc3ccccc3)CC1)C2 (stereo not drawn) [donepezil, donepezil hydrochloride, reference compound]
discrimination index (Male IGS rats [2]; donepezil-treated group, orally, vs vehicle (p<0.05, Student's t-test)): statistically significant compared to that in vehicle-treated group

CC(C)n1c(=O)n(C(=O)NCC2CCN(CC3(O)CCOCC3)CC2)c2ccccc21 [Compound A, N-((1-((4-hydroxytetrahydro-2H-pyran-4-yl)methyl)piperidin-4-yl)methyl)-3-isopropyl-2-oxo-2,3-dihydro-1H-benzo[d]imidazole-1-carboxamide]
discrimination index (Male IGS rats [2]; Compound A 0.1, 0.3, 1 mg/kg, orally 60 min before training and retention trial, vs vehicle (*p<0.05, **p<0.01, Dunnett)): statistically significant compared to that in vehicle-treated group | percent alteration (Male IGS rats [1]; 0.1 and 3 mg/kg, scopolamine-induced impairment): showed a tendency to improve without statistical significance | percent alteration (Male IGS rats [1]; doses of 0.3 and 1 mg/kg, scopolamine-induced impairment, vs vehicle-treated group (p<0.01)): significantly increased the percent alterations | total brain Abeta1-40 levels (Tg2576 mice): significantly decreased total brain Abeta1-40 levels | total brain Abeta1-42 levels (Tg2576 mice): dose-dependently and substantially decreased total brain Abeta1-42 levels | ACh concentration (percent of baseline) [3]: 187%

CC(C)n1c(=O)c(C(=O)NCCCN2CCCCC2)c(O)c2ccsc21 [PRX-03140]
Abeta reduction in animal models (Abeta): Abeta reducing tendency while those efficacies were not significant suppressions
